Paper PMC8877061, “Antifungal and Antibiofilm Activity of Cyclic Temporin L Peptide Analogues against Albicans and Non-Albicans Candida Species” (Pharmaceutics, 2022)
Values after ≈ are worked out from the molar mass of the structure shown. “Also recorded” adds a separate entry of the source. Read-outs that look alike come from different tables or passages of the source. Positions of bridges follow the written chain, without caps; N, C: chain ends. Non-standard residues stand in square brackets, D forms with d. Residues, ends and D or L forms follow the SMILES beside them. Triazole bridges read from a SMILES are 1,4-linked. Lys(N3) = [N-]=[N+]=NCCCC[C@H](N)C(=O)O; Pra = C#CC[C@H](N)C(=O)O

What was measured:
[1] = system: S. typhimurium strain TA100; assay type: cell-based; conditions: 12.5 µM, TA100 without S9, 37 °C, 5 days, duplicate; MR ≥2 = mutagenic
Description: The fluctuation Ames test was performed according to the manufacturer’s protocol provided for the Muta-ChromoPlate Bacterial Strain Kit (EBPI, Canada) and according to OECD Guideline 471 (OECD Guidelines for the Testing of Chemicals, Section 4, Test No. 471: Bacterial Reverse Mutation Test). S. typhimurium strain TA100 was used to assess the bacterial reverse mutation from amino acid (histidine) auxotrophy to prototrophy after exposure to mutagens. The overnight TA100 cultures were exposed to each peptide at a 12.5-µM concentration in the presence of bromocresol purple and then dispensed into 96-well microtiter plates. The plates were incubated at 37 °C for 5 days. After this period, the number of positive colonies was counted and statistically compared with the number of positive colonies in the blank wells to identify the spontaneous mutation rate. The negative control was distilled water, while the positive control was sodium azide for TA100 without S9. All experiments were conducted in duplicate. The results were expressed as the mutagenicity ratio (MR) and were obtained by dividing the number of reverse mutation colonies by the spontaneous mutation rate. When the MR was ≥2, the sample was judged to be mutagenic.

[2] = system: C. tropicalis DSM 11951; assay type: cell-based
Description: (§1) C. albicans ATCC 90028, C. auris DSM 21092, C. glabrata DSM 11226, C. tropicalis DSM11951 and C. parapsilosis DSM 4874 grown on YPD Agar (1% w/v yeast extract, 2% w/v peptone, 2% w/v glucose, 1.5% Agar) were cultured in Tryptone soya broth supplemented with 0.1% glucose for 16–18 h at 37 °C, washed twice using sterile phosphate-buffered saline (PBS) and standardized to […] as required for the experiments. RPMI1640 medium (Thermo Fisher Scientific, Waltham, MA, USA) buffered to a pH of 7.0 with 0.165 M MOPS was used for growing the biofilms of all Candida species.
(§2) The antifungal activity of peptides against all five Candida species was determined according to CLSI-M27-A3 [33], as reported previously. Briefly, the compounds were tested at concentrations ranging from […] to 50 μM, and the organism suspensions were adjusted to an inoculum of 10^6 cell/mL at OD 590 nm in RPMI 1640, added to the 96-well plate and incubated at 37 °C for 24 h. The minimum inhibitory concentration (MIC) values were determined as the lowest concentration inhibiting fungal growth at 590 nm using a microplate reader (Synergy™ H4; BioTek Instruments, Inc., Winooski, VT, USA). […] The MFC was the lowest concentration that yielded no colony growth on the agar. The MFC/MIC ratio was calculated to determine whether the substance had fungistatic (MFC/MIC ≥ 4) or fungicidal (MFC/MIC < 4) activity.

[3] = system: C. glabrata DSM 11226; assay type: cell-based
Description: as §1, §2

[4] = system: C. auris DSM 21092; assay type: cell-based; conditions: DSM 21092, 24 h
Description: as §1, §2

[5] = system: C. parapsilosis DSM 5784; assay type: cell-based; conditions: DSM 5784, 24 h
[6] = system: C. albicans cells; experiment: Zeta potential of fungal cells by dynamic light scattering; assay type: cell-based; parameters: Calculated Zeta Potential: unit not given here; conditions: for Experimental Zeta Potential (ς): C. albicans cells after peptide 25 μM, PBS 0.001×, electrophoretic light scattering; for Calculated Zeta Potential: theoretical: charge of the peptide added to the zeta potential of the C. albicans cells
Description: The zeta potential of the fungal cells was recorded in a suspension (0.5 × 10^6 cells/mL) using the electrophoretic light scattering technique on a Zetasizer Nano ZS analyzer. Before the peptide treatment, the cells were suspended using a 0.05% trypsin solution in 0.53 mM EDTA. The concentration of the suspended cells in a buffered phosphate saline (PBS, 1.7 mM KH2PO4, 5.2 mM Na2HPO4 and 150 mM NaCl) was determined on a hemocytometer. The measurements were performed by diluting the cells with PBS 0.001× and treating them with the peptide at a concentration of 25 μM.

[7] = system: G. mellonella larvae; conditions: in vivo
Description: Twenty larvae with an average weight of 180–200 mg were used in each group in all assays with 2 control groups; one group was inoculated with PBS, while the other group received no injection as a control to evaluate general viability. A volume of 10 µL of each peptide at different concentrations (12.5, 25.0, and 50.0 µM) was inoculated in each group. All larvae were incubated at 37 °C and monitored daily for survival for 4 days in 3 independent experiments.

[8] = system: C. albicans ATCC 90028; assay type: cell-based; conditions: ATCC 90028, 24 h
Description: as §1, §2

[9] = Circular dichroism in liposomes mimicking fungal membranes; assay type: physicochemical; conditions: SUVs PE/PC/PI/ergosterol
Description: The circular dichroism spectra of the selected peptides (3, 7, 15 and 16) were recorded in small unilamellar vesicles (SUVs) composed of PE/PC/PI/Ergosterol (5:4:1:2, w/w/w/w, final lipid concentration = 0.01 mM) and DOPC/Chol (70:30, ratio in moles, final lipid concentration = 0.1 mM), between 190 and 260 nm on a JASCO J-710 CD spectropolarimeter at 25 °C using quartz cells with a 0.1-cm path length. The SUVs were prepared as reported in the following protocol. Once the lipid films were prepared as described above, they were hydrated with a phosphate buffer (5 mM, pH 7.4) (DOPC:Chol) or water (PE/PC/PI/Ergosterol) for 1 h and sonicated for 40 min. […] We accumulated the data three times, and all spectral data were subtracted from the background. Each spectrum converted the signal to the mean molar ellipticity, and we calculated the ratio of the ellipticities at 222 and 208 nm to discriminate between the monomeric and oligomeric states of the helices. The helix content was calculated as follows: [θ]222/(−40,000[1 − 2.5/n)], where [θ]222 is the ellipticity measurement at 222 nm and n is the number of amino acid residues.

[10] = CLSI-M27-A3, RPMI 1640, 10^6 cell/mL, 37 °C, 24 h, read at 590 nm

Compound | mutagenicity ratio (MR) [1] | MFC, C. tropicalis DSM 11951 ([2]; DSM 11951, 24 h) | MIC, C. tropicalis DSM 11951 ([2]; DSM 11951, 24 h) | MFC, C. glabrata DSM 11226 ([3]; DSM 11226, 24 h) | MIC, C. glabrata DSM 11226 ([3]; DSM 11226, 24 h) | MFC, C. auris DSM 21092 [4] | MIC, C. auris DSM 21092 [4] | MFC, C. parapsilosis DSM 5784 [5] | Experimental Zeta Potential (ς) [6] | Calculated Zeta Potential [6] | toxicity in G. mellonella larvae at 50 μM [7] | MFC, C. albicans ATCC 90028 [8] | MIC, C. tropicalis DSM 11951 [2, 10] | MIC, C. glabrata DSM 11226 [3, 10] | conformation by CD in fungal membrane-like SUVs, 10 μM ([9]; peptide 10 μM) | conformation by CD in fungal membrane-like SUVs, 50 μM ([9]; peptide 50 μM)
CC[C@H](C)[C@H](NC(=O)[C@H](CCCNC(=N)N)NC(=O)[C@@H]1CCC(=O)NCCCC[C@H](NC(=O)[C@H](Cc2ccccc2)NC(=O)[C@H](Cc2c[nH]c3ccccc23)NC(=O)[C@@H]2CCCN2C(=O)[C@@H](NC(=O)[C@@H](N)Cc2ccccc2)C(C)C)C(=O)N[C@@H](CCCCN)C(=O)N[C@@H](Cc2ccccc2)C(=O)N[C@H](CC(C)C)C(=O)N1)C(=O)N[C@@H](CC(C)C)C(N)=O [compound 3] (H-FVPWFKKF[dL]ERIL-NH2; lactam 6-10; N-terminus assumed) | < 2 | 50 µM | 50 µM | 50 µM | 50 µM | 50 µM | 50 µM | 50 µM (≈ 85.2 µg/mL) | 1.6 ± 0.3 mV | −3.2 ± 0.5 | – | – | – | – | – | –
CC(C)C[C@H](NC(=O)[C@@H]1CCCCn2cc(nn2)C[C@H](NC(=O)[C@H](CCCCN)NC(=O)[C@H](CO)NC(=O)[C@H](Cc2ccccc2)NC(=O)[C@H](Cc2c[nH]c3ccccc23)NC(=O)[C@@H]2CCCN2C(=O)[C@@H](NC(=O)[C@@H](N)Cc2ccccc2)C(C)C)C(=O)N[C@H](CC(C)C)C(=O)NCC(=O)N[C@@H](CCCNC(=N)N)C(=O)N1)C(N)=O [compound 7] (H-FVPWFSK[Pra][dL]GR[Lys(N3)]L-NH2; triazole 8-12; N-terminus assumed) | < 2 | 50 µM | 50 µM | 50 µM | 50 µM | >50 µM | 50 µM | 50 µM (≈ 79.9 µg/mL) | −4.5 ± 1.6 mV | −3.2 ± 0.5 | – | – | – | – | – | –
CC[C@H](C)[C@H](NC(=O)[C@H](CCCNC(=N)N)NC(=O)[C@@H]1CCCCNC(=O)CC[C@H](NC(=O)[C@H](Cc2ccccc2)NC(=O)[C@H](Cc2c[nH]c3ccccc23)NC(=O)[C@@H]2CCCN2C(=O)[C@@H](NC(=O)[C@@H](N)Cc2ccccc2)C(C)C)C(=O)N[C@@H](CCCCN)C(=O)N[C@@H](Cc2ccccc2)C(=O)N[C@H](CC(C)C)C(=O)N1)C(=O)N[C@@H](CC(C)C)C(N)=O [compound 15] (H-FVPWFEKF[dL]KRIL-NH2; lactam 6-10; N-terminus assumed) | < 2 | >50 µM | 50 µM | >50 µM | 50 µM | >50 µM | 50 µM | 50 µM (≈ 85.2 µg/mL) | 13.5 ± 3.4 mV | −3.2 ± 0.5 | greater toxicity | > 50 µM | – | – | – | –
CC[C@H](C)[C@H](NC(=O)[C@H](CCCNC(=N)N)NC(=O)[C@@H]1CSSC[C@H](NC(=O)[C@H](Cc2ccccc2)NC(=O)[C@H](Cc2c[nH]c3ccccc23)NC(=O)[C@@H]2CCCN2C(=O)[C@@H](NC(=O)[C@@H](N)Cc2ccccc2)C(C)C)C(=O)N[C@@H](CCCCN)C(=O)N[C@@H](Cc2ccccc2)C(=O)N[C@H](CC(C)C)C(=O)N1)C(=O)N[C@@H](CC(C)C)C(N)=O [compound 16] (H-FVPWFCKF[dL]CRIL-NH2; disulfide 6-10; N-terminus assumed) | < 2 | 50 µM | – | 50 µM | – | >50 µM | 50 µM | >50 µM | −6.5 ± 0.2 mV | −3.2 ± 0.5 | – | >50 µM | 25 µM | 25 µM | random coil conformation; also recorded: random coil structure | α-helical molecular aggregates
